Test results published in the NIST ThermoML archive (doi:10.1016/j.jct.2016.07.026).

Experiment: wn = mass fraction of the nth substance listed
Conditions: 101 kPa, Liquid, Concentric cylinders viscometry

O=C([O-])[O-].[K+].[K+] [potassium carbonate] + O
viscosity [mPa·s]
Conditions | 303.2 K | 313.2 K | 323.2 K
w1 = 0.15 | 1.27 | 1.08 | 0.92
w1 = 0.2 | 1.43 | 1.22 | 1.05
w1 = 0.2501 | 1.64 | 1.39 | 1.2
